Laboratory results reported in US20230011916A1, “METHODS OF CANCER TREATMENT USING ANTI-OX40 ANTIBODIES IN COMBINATION WITH PI3 KINASE DELTA INHIBITORS” (BEIGENE, LTD., priority 2019, published 2023).

What was measured:
Type in all cases: in vivo, mouse
[1] = test system: A20 cells; assay: A20 syngeneic B cell lymphoma model in BALB/c mice; conditions: Compound 1 10 mg/kg p.o.
Method: A20 cells are of B cell lymphoma origin. Female BALB/c mice were subcutaneously implanted with 1×10^5 A20 cells in 150 μL PBS mice in the right flank. After inoculation, mice were randomized into 4 groups with 25 animals in each group according to inoculation order. The mice were treated with vehicle (0.5% MC), OX86 (a murine specific anti-OX40 antibody), Compound 1, and the combination of OX86 and Compound 1. OX86 was given at 0.4 mg/kg once a week by intraperitoneal injection, and Compound 1 was administered at 10 mg/kg twice a day by oral gavage. Tumor volume was determined twice weekly and the TGI calculated as described above.

[2] = test system: EMT-6 cells; assay: EMT-6 syngeneic breast cancer model in BALB/c mice
Method: EMT-6 cells are of murine breast cancer origin. Female BALB/c mice were implanted intramammary with 5×10^4 EMT-6 cells per 100 μL PBS mice in the second right papilla. After inoculation, mice were randomized into 4 groups with 25 animals in each group according to inoculation order.
The mice were treated with vehicle (0.5% MC), OX86 (a murine specific anti-OX40 antibody), Compound 1 (PI3Kdelta inhibitor), and the combination of OX86 and Compound 1, respectively. OX86 was given at 0.4 mg/kg once per week (QW) by intraperitoneal (i.p.) injection, and Compound 1 was administered at 30 mg/kg twice per day (BID) by oral gavage (p.o.). Tumor volume was determined twice weekly and tumor growth inhibition was determined using the formula described in Example 14 above.

[3] = test system: CT26WT cells; assay: CT26WT syngeneic colon carcinoma model in BALB/c mice; conditions: Compound 2A 10 mg/kg p.o.
Method: CT26WT cells are of colon cancer origin. Female BALB/c mice were subcutaneously implanted with 1×10^5 CT26WT cells in 100 μL PBS in the right flank. After inoculation, mice were randomized into 4 groups according to inoculation order. The mice were treated with vehicle (0.5% MC) as a control. Antibody 1A7.grl (sequence disclosed in US2015/0307617) was confirmed to bind mouse OX40 in house.
[…] Compound 2A was administered as single agent at 10 mg/kg twice a day by oral gavage. The 1A7.gr1 antibody in combination with Compound 2A was administered as combination therapy at the same doses described above for each therapeutic given as a single agent. Tumor volume was determined twice weekly, and the TGI calculated as described above.

[4] = OX86 0.4 mg/kg QW i.p., Compound 1 30 mg/kg BID p.o.

Structure (SMILES) | Mean Tumor Volume on Day 26 (mean ± SEM) ([1]; OX86 0.4 mg/kg QW i.p.) | Tumor Free Animals at Day 47 ([1]; OX86 0.4 mg/kg QW i.p.) | TGI on Day 26 ([1]; OX86 0.4 mg/kg QW×4 i.p.) | Mean Tumor Volume on Day 22 (mean ± SEM) [2, 4] | Tumor Free Animal [2, 4] | TGI on Day 22 ([2]; OX86 0.4 mg/kg QW×4 i.p., Compound 1 30 mg/kg BID×22 p.o.) | Mean Tumor Volume on Day 25 (mean ± SEM) ([3]; 1A7.gr1 2 mg/kg QW i.p.) | Tumor Free Animals at Day 35 ([3]; 1A7.gr1 2 mg/kg QW i.p.) | TGI on Day 25 ([3]; 1A7.gr1 2 mg/kg QW×4 i.p.)
Cc1nc([C@@H](C)c2cc(Cl)c(F)c(C(=O)NCCN3CCN(C)CC3)c2OC(C)C)n2ccnc(N)c12 [Compound 1, (S)-3-(1-(8-amino-1-methylimidazo[1,5-a]pyrazin-3-yl)ethyl)-5-chloro-6-fluoro-2-isopropoxy-N-(2-(4-methylpiperazin-1-yl)ethyl)benzamide] | 683.9 ± 89.7 mm^3 | 0% | 7% | 758.1 ± 100.6 mm^3 | 4% | 26% | – | – | –
CC(C)Oc1c([C@H](C)c2nc(Cl)c3c(N)nccn23)cc(Cl)c(F)c1-c1ccc(C(F)(F)F)nc1 [Compound 2A, 1-chloro-3-(1-(5-chloro-4-fluoro-2-isopropoxy-3-(6-(trifluoromethyl)pyridin-3-yl)phenyl)ethyl) imidazo[1,5-a]pyrazin-8-amine] | – | – | – | – | – | – | 941.6 ± 207.8 mm^3 | 7% | 58%
